Results reported in patent US5159081A, “Intermediates of peripherally selective N-carbonyl-3,4,4-trisubstituted piperidine opioid antagonists” (Eli Lilly and Company, priority 1991, dated 1992).
pKi: −log10 of the molar value. Structures can show the parent of a compound that is named as a salt. Where two headings read alike, the source gives them in different places.

Legend:
[1] = target: T1, opioid receptor (Mus musculus, UniProt P42866); experiment: in vivo; set-up: species or system CF-1 male mice; details: sc, mouse writhing test, s.c. 20 min before acetic acid, read-out: AD50 (the source's name)
T1 construct: Five CF-1 male mice (Charles River, Portage, MI); from tissue; host or cells: living CF-1 male mice (whole animal, endogenous receptor)
T1 sequence (P42866 whole entry): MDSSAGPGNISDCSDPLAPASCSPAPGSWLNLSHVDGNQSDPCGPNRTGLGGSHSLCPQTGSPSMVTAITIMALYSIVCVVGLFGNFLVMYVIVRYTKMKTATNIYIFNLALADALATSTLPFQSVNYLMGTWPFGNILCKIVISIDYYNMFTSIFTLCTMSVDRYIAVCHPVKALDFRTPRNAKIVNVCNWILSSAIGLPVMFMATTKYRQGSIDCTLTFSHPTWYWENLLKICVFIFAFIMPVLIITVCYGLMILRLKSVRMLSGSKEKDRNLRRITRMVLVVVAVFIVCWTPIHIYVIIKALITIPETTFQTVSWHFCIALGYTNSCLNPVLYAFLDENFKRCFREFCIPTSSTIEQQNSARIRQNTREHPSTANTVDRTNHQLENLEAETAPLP

[2] = target: peripheral opioid receptors (Mus musculus, UniProt P42866); experiment: mouse diarrhea test: precipitated diarrhea in morphine-maintained mice (peripheral opioid activity); format: in vivo; details: mouse diarrhea test, morphine-maintained mice, subcutaneous or oral, 30 min observation
Sequence of peripheral opioid receptors (Mus musculus, UniProt P42866) (P42866 whole entry): as above

[3] = system: peripheral opioid receptors; experiment: as above; format: in vivo
[4] = target: T2, mu receptor (Rattus norvegicus, UniProt P33535); experiment: Naloxone [3H] opioid receptor binding assay (mu receptor); set-up: species or system rat (male Sprague Dawley); details: 20 min; for pKi: rat whole brain minus cerebellum, pH 7.4, 37° C., read-out: Ki
T2 construct: The brain tissue, rat whole brain minus cerebellum for mu was homogenized; from tissue; host or cells: brain minus cerebellum of male Sprague Dawley rats, homogenate fraction
T2 sequence (P33535 whole entry): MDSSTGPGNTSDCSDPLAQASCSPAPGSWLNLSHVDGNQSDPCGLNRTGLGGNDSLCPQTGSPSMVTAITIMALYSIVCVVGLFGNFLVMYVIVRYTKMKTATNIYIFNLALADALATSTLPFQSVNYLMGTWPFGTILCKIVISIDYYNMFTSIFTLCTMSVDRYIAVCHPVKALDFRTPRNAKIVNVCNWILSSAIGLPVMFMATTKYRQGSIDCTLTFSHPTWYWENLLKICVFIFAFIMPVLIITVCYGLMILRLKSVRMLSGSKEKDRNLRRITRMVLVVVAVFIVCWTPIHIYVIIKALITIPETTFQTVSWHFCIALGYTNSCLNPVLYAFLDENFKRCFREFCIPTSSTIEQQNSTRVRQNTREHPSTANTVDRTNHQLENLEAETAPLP

[5] = dose of antagonist that reduced inhibition of writhing by 1.25 mg/kg morphine sulfate to 50%
[6] = AD50 mouse writhing / ED50 mouse diarrhea, higher = greater relative peripheral antagonism
[7] = pH 7.4, read-out: % displacement at 10 nM
[8] = pH 7.4, read-out: % displacement at 100 nM
[9] = pH 7.4, 10 nM test compound, [3H]naloxone 0.5 nM, mu receptor, read-out: % displacement at 10 nM
[10] = pH 7.4, 100 nM test compound, [3H]naloxone 0.5 nM, mu receptor, read-out: % displacement at 100 nM

Compound: C[C@H]1CN(CCC(NC(=O)C(CCCNC(=N)N[N+](=O)[O-])NC(=O)CCCC(=O)NCc2ccccc2)c2ccccc2)CC[C@@]1(C)c1cccc(O)c1 (single isomer, unassigned; (-)) [Example 8, (-)-N-(1-phenyl-3-(trans-4-(3-hydroxyphenyl)-3,4-dimethyl-1-piperidinyl)propyl)-2-((1,5-dioxo-5-(phenylmethyl)amino)pentyl)amino-5-((imino(nitroamino)methyl)-amino)pentanamide]
- ED50 [1, 5]: > 1.25 mg/kg
- ED50 [2]: 0.64 mg/kg
- Ratio (ratio of AD50 to ED50) [3, 6]: > 2
- inhibition at 0.01 µM [4, 7]: 95%
- inhibition at 0.1 µM [4, 8]: 99%
- pKi ([4]; […], [3H]naloxone 0.5 nM): 9.17

Compound: CC(C)COC(=O)CCC(=O)N(CCN1CC[C@@](C)(c2cccc(O)c2)[C@@H](C)C1)C1CCCCC1 (relative stereo) [Example 72]
- ED50 ([1]; […]): 5.5 mg/kg
- ED50 ([2]; 0.5 h, read-out: ED50): 0.017 mg/kg
- Ratio (ratio of AD50 to ED50) [3, 6]: 324
- inhibition at 0.01 µM [4, 9]: 73%
- inhibition at 0.1 µM [4, 10]: 96%

Compound: CCNC(=O)N[C@H](Cc1ccccc1)CN1CC[C@](C)(c2cccc(O)c2)[C@H](C)C1 [Example 17, N-Ethyl-N'-2-(D-(1-(trans-4-(3-hydroxyphenyl)-3,4-dimethyl-1-piperidinyl)-3-phenyl)propyl)urea hydrochloride monohydrate]
- ED50 ([1]; […]): > 40 mg/kg
- ED50 ([2]; 0.5 h, read-out: ED50): 3.28 mg/kg
- Ratio (ratio of AD50 to ED50) [3, 6]: > 12
- inhibition at 0.01 µM [4, 9]: 38%
- inhibition at 0.1 µM [4, 10]: 82%

Compound: C[C@H]1CN(C[C@@H](CC2CCCCC2)NC(=O)CCCC(=O)O)CC[C@@]1(C)c1cccc(O)c1 [Example 46D]
- ED50 ([1]; […]): 6.5 mg/kg
- ED50 [2]: 0.09 mg/kg
- Ratio (ratio of AD50 to ED50) [3, 6]: 72
- inhibition at 0.01 µM [4, 7]: 48%
- inhibition at 0.1 µM [4, 8]: 84%

Compound: CCNC(=O)COC(=O)CCCC(=O)N[C@@H](CC1CCCCC1)CN1CC[C@@](C)(c2cccc(O)c2)[C@@H](C)C1 [Example 66]
- ED50 ([1]; […]): 12.2 mg/kg
- ED50 [2]: 0.005 mg/kg
- Ratio (ratio of AD50 to ED50) [3, 6]: 2440
- inhibition at 0.01 µM [4, 7]: 81%
- inhibition at 0.1 µM [4, 8]: 94%
- pKi ([4]; […], [3H]naloxone 0.5 nM): 8.74

Compound: C[C@@H]1CN(C[C@@H](Cc2ccccc2)NC(=O)CC(=O)O)CC[C@]1(C)c1cccc(O)c1 [Example 13, Trans-3-((2-(4-(3-hydroxyphenyl)-3,4-dimethyl-1-piperidinyl)-1-(D-(phenylmethyl)ethyl)amino))-3-oxopropionic acid monohydrate]
- ED50 ([1]; […]): > 40 mg/kg
- ED50 ([2]; 0.5 h, read-out: ED50): 0.29 mg/kg
- Ratio (ratio of AD50 to ED50) [3, 6]: > 138
- inhibition at 0.01 µM [4, 9]: 24%
- inhibition at 0.1 µM [4, 10]: 72%

Compound: CC(C)COC(=O)CCCC(=O)N[C@H](CC1CCCCC1)CN1CC[C@@](C)(c2cccc(O)c2)[C@@H](C)C1 [Example 59]
- ED50 ([1]; […]): > 40 mg/kg
- ED50 ([2]; 0.5 h, read-out: ED50): 0.059 mg/kg
- Ratio (ratio of AD50 to ED50) [3, 6]: > 678
- inhibition at 0.01 µM [4, 9]: 6%
- inhibition at 0.1 µM [4, 10]: 53%

Compound: CC(C)CCN(CCN1CC[C@@](C)(c2cccc(O)c2)[C@@H](C)C1)C(=O)CCC(=O)O (relative stereo) [Example 28, 4-(3-methylbutyl-(2-(trans-4-(3-hydroxyphenyl)-3,4-dimethyl-1-piperidinyl)ethyl)amino)-4-oxobutanoic acid monohydrate]
- ED50 [1, 5]: > 1.25 mg/kg
- ED50 ([2]; 0.5 h, read-out: ED50): 0.1 mg/kg
- Ratio (ratio of AD50 to ED50) [3, 6]: > 12
- inhibition at 0.01 µM [4, 9]: 67%
- inhibition at 0.1 µM [4, 10]: 100%

Compound: CCNC(=O)COC(=O)CCCC(=O)N[C@@H](CC1CCCCC1)CN1CC[C@](C)(c2cccc(O)c2)[C@H](C)C1 [Example 65]
- ED50 ([1]; […]): > 40 mg/kg
- ED50 [2]: 0.02 mg/kg
- Ratio (ratio of AD50 to ED50) [3, 6]: > 2000
- inhibition at 0.01 µM [4, 7]: 67%
- inhibition at 0.1 µM [4, 8]: 93%

Compound: CCOC(=O)CCCC(=O)N[C@@H](CC1CCCCC1)CN1CC[C@@](C)(c2cccc(O)c2)[C@@H](C)C1 [Example 52]
- ED50 ([1]; […]): 28 mg/kg
- ED50 [2]: 0.02 mg/kg
- Ratio (ratio of AD50 to ED50) [3, 6]: 1400
- inhibition at 0.01 µM [4, 7]: 87%
- inhibition at 0.1 µM [4, 8]: 96%
- pKi ([4]; […], [3H]naloxone 0.5 nM): 8.63

Compound: CC(C)COC(=O)CCCC(=O)N[C@H](CC1CCCCC1)CN1CC[C@](C)(c2cccc(O)c2)[C@H](C)C1 [Example 58]
- ED50 ([1]; […]): > 40 mg/kg
- ED50 ([2]; 0.5 h, read-out: ED50): 0.17 mg/kg
- Ratio (ratio of AD50 to ED50) [3, 6]: > 235
- inhibition at 0.01 µM [4, 9]: 0%
- inhibition at 0.1 µM [4, 10]: 38%

Compound: C[C@H]1CN(CCN(C(=O)CCC(=O)O)c2ccccc2)CC[C@@]1(C)c1cccc(O)c1 (relative stereo) [Example 19, 4-((2-(Trans-4-(3-hydroxyphenyl)-3,4-dimethyl-1-piperidinyl)ethyl)phenylamino-4-oxobutanoic acid monohydrate]
- ED50 ([1]; […]): 6.3 mg/kg
- ED50 ([2]; 0.5 h, read-out: ED50): 0.082 mg/kg
- Ratio (ratio of AD50 to ED50) [3, 6]: 77
- inhibition at 0.01 µM [4, 9]: 48%
- inhibition at 0.1 µM [4, 10]: 92%

Compound: CC(C)CN(CCCN1CC[C@@](C)(c2cccc(O)c2)[C@@H](C)C1)C(=O)CCCC(=O)O (relative stereo) [Example 29, 5-(2-Methylpropyl-(3-(trans-4-(3-hydroxyphenyl)-3,4-dimethyl-1-piperidinyl)propyl)amino)-5-oxopentanoic acid monohydrate]
- ED50 ([1]; […]): 7.6 mg/kg
- ED50 ([2]; 0.5 h, read-out: ED50): 0.99 mg/kg
- Ratio (ratio of AD50 to ED50) [3, 6]: 7.7
- inhibition at 0.01 µM [4, 9]: 56%
- inhibition at 0.1 µM [4, 10]: 88%

Compound: CC(=O)NC(CCCNC(=N)N[N+](=O)[O-])C(=O)NCCN1CCC(C)(c2cccc(O)c2)C(C)C1 (stereo not drawn) [Example 42, N-(2-(trans-4-(3-hydroxyphenyl)-3,4-dimethyl-1-piperidinyl)ethyl)-2-(acetylamino)-5-((imino(nitroamino)-methyl)amino)pentanamide monohydrate]
- ED50 ([1]; […]): > 20 mg/kg
- ED50 ([2]; 0.5 h, read-out: ED50): 0.12 mg/kg
- Ratio (ratio of AD50 to ED50) [3, 6]: > 160
- inhibition at 0.01 µM [4, 9]: 44%
- inhibition at 0.1 µM [4, 10]: 89%

Compound: CC1CN(CCNC(=O)[C@H](CCCNC(=N)N[N+](=O)[O-])NC(=O)OC(C)(C)C)CCC1(C)c1cccc(O)c1 (stereo partly drawn) [Example 44, (1-(((2-(Trans-4-(3-hydroxyphenyl)-3,4-dimethyl-1-piperidinyl)ethyl)amino)carbonyl)-4-((imino(nitroamino)methyl)amino)butyl) carbamic acid, 1,1-dimethylethyl ester]
- ED50 ([1]; […]): > 2 mg/kg
- ED50 [2]: 0.07 mg/kg
- Ratio (ratio of AD50 to ED50) [3, 6]: > 30
- inhibition at 0.01 µM [4, 7]: 63%
- inhibition at 0.1 µM [4, 8]: 85%
- pKi ([4]; […], [3H]naloxone 0.5 nM): 8.63

Compound: Cc1oc(=O)oc1COC(=O)CCCC(=O)N[C@@H](CC1CCCCC1)CN1CC[C@@](C)(c2cccc(O)c2)[C@@H](C)C1 [Example 70]
- ED50 ([1]; […]): 18.2 mg/kg
- ED50 [2]: 0.017 mg/kg
- Ratio (ratio of AD50 to ED50) [3, 6]: 1070
- inhibition at 0.01 µM [4, 7]: 89%
- inhibition at 0.1 µM [4, 8]: 99%
- pKi ([4]; […], [3H]naloxone 0.5 nM): 8.75

Compound: COC1CCC(OC(=O)CCCC(=O)N[C@@H](CC2CCCCC2)CN2CC[C@@](C)(c3cccc(O)c3)[C@@H](C)C2)CC1 (stereo partly shown) [Example 68]
- ED50 ([1]; […]): 18.8 mg/kg
- ED50 ([2]; 0.5 h, read-out: ED50): 0.29 mg/kg
- Ratio (ratio of AD50 to ED50) [3, 6]: 65
- inhibition at 0.01 µM [4, 9]: 68%
- inhibition at 0.1 µM [4, 10]: 95%

Compound: C[C@H]1CN(C[C@H](CC2CCCCC2)NC(=O)CCCC(=O)OCC(N)=O)CC[C@@]1(C)c1cccc(O)c1 [Example 61]
- ED50 ([1]; […]): 22 mg/kg
- ED50 [2]: 0.13 mg/kg
- Ratio (ratio of AD50 to ED50) [3, 6]: 169
- inhibition at 0.01 µM [4, 7]: 88%
- inhibition at 0.1 µM [4, 8]: 97%
- pKi ([4]; […], [3H]naloxone 0.5 nM): 8.54

Compound: CC(C)C(=O)NCCCC(=O)NC(CCCNC(=N)N[N+](=O)[O-])C(=O)NC(CCN1CC[C@@](C)(c2cccc(O)c2)[C@@H](C)C1)c1ccccc1 (single isomer, unassigned; (-)) [Example 9, (-)-N-(1-phenyl-3-(trans-4-(3-hydroxyphenyl)-3,4-dimethyl-1-piperidinyl)propyl)-2-((1-oxo-4-(2-methyl-1-oxopropyl)amino)butyl)amino-5-((imino(nitroamino)-methyl)amino)pentanamide]
- ED50 [1, 5]: > 1.25 mg/kg
- ED50 [2]: 0.25 mg/kg
- Ratio (ratio of AD50 to ED50) [3, 6]: > 5
- inhibition at 0.1 µM [4, 8]: 100%
- inhibition at 0.01 µM ([4]; pH 7.4, 10 nM test compound, [3H]naloxone 0.5 nM, […], read-out: % displacement at 10 nM): 92%
- pKi ([4]; […], [3H]naloxone 0.5 nM): 8.88

Compound: CCOC(=O)CCC(=O)N(CCN1CC[C@@](C)(c2cccc(O)c2)[C@@H](C)C1)C1CCCCC1 (relative stereo) [Example 71]
- ED50 ([1]; […]): 3.71 mg/kg
- ED50 [2]: 0.29 mg/kg
- Ratio (ratio of AD50 to ED50) [3, 6]: 13
- inhibition at 0.01 µM [4, 7]: 78%
- inhibition at 0.1 µM [4, 8]: 96%
- pKi ([4]; […], [3H]naloxone 0.5 nM): 8.41

Compound: CCOC(=O)CC(=O)N[C@H](Cc1ccccc1)CN1CC[C@](C)(c2cccc(O)c2)[C@H](C)C1 [Example 12, Ethyl trans-3-((2-(4-(3-hydroxyphenyl)-3,4-dimethyl-1-piperidinyl)-1-(D-(phenylmethyl)ethyl)amino))-3-oxopropionate hydrochloride]
- ED50 ([1]; […]): 20 mg/kg
- ED50 [2]: 0.20 mg/kg
- Ratio (ratio of AD50 to ED50) ([3]; mouse, in vivo): 100
- inhibition at 0.01 µM [4, 7]: 43%
- inhibition at 0.1 µM [4, 8]: 87%

Compound: C[C@H]1CN(CCN(C(=O)CCC(=O)OCC2CCCCC2)C2CCCCC2)CC[C@@]1(C)c1cccc(O)c1 (relative stereo) [Example 73]
- ED50 ([1]; […]): 9.2 mg/kg
- ED50 ([2]; 0.5 h, read-out: ED50): 0.17 mg/kg
- Ratio (ratio of AD50 to ED50) [3, 6]: 54
- inhibition at 0.01 µM [4, 9]: 46%
- inhibition at 0.1 µM [4, 10]: 88%
